HELM strings list units from the 5' end as sugar, base in round brackets, then linkage (d deoxyribose, r ribose, m 2'-O-methyl, p phosphodiester). Strings are as the collection lists them; they lack the last nucleoside at the 3' end of the tested compound. [moe] = 2'-O-(2-methoxyethyl) (MOE); [sp] = phosphorothioate linkage; [m5C] = 5-methylcytosine
Molecular target: LRRK2
Assay: mouse, dose not given
Conditions: ASO

Substance	3 h FOB score [score 0-7]
RNA1{[moe](G)[sp].[moe]([m5C])p.[moe]([m5C])p.[moe]([m5C])p.[moe](A)[sp].d(T)[sp].d(T)[sp].d(T)[sp].d([m5C])[sp].d(T)[sp].d(T)[sp].d([m5C])[sp].d(A)[sp].d(A)[sp].d([m5C])[sp].[moe](A)p.[moe](G)p.[moe](A)[sp].[moe](G)}$$$$ (last 3' nucleoside missing)	0
RNA1{[moe](T)[sp].[moe](A)p.[moe](A)[sp].[moe]([m5C])[sp].[moe](G)[sp].d([m5C])[sp].d(A)[sp].d([m5C])[sp].d(T)[sp].d(T)[sp].d(A)[sp].d(A)[sp].d([m5C])[sp].d(A)[sp].d(A)[sp].[moe](T)[sp].[moe](A)p.[moe](T)[sp].[moe]([m5C])}$$$$ (last 3' nucleoside missing)	2
RNA1{[moe](T)[sp].[moe](G)p.[moe](A)[sp].[moe](G)[sp].[moe](T)[sp].d(G)[sp].d([m5C])[sp].d(A)[sp].d(T)[sp].d(G)[sp].d(G)[sp].d([m5C])[sp].d(A)[sp].d(T)[sp].d([m5C])[sp].[moe](A)[sp].[moe](A)p.[moe](A)[sp].[moe](A)}$$$$ (last 3' nucleoside missing)	5
RNA1{[moe](T)[sp].[moe](G)p.[moe](T)[sp].[moe]([m5C])[sp].[moe](A)[sp].d([m5C])[sp].d([m5C])[sp].d(T)[sp].d(T)[sp].d(T)[sp].d([m5C])[sp].d([m5C])[sp].d([m5C])[sp].d(A)[sp].d(A)[sp].[moe](T)[sp].[moe](G)p.[moe]([m5C])[sp].[moe](T)}$$$$ (last 3' nucleoside missing)	5
RNA1{[moe](T)[sp].[moe](G)p.[moe]([m5C])[sp].[moe](T)[sp].[moe](G)[sp].d([m5C])[sp].d(T)[sp].d([m5C])[sp].d(A)[sp].d(T)[sp].d(A)[sp].d(T)[sp].d([m5C])[sp].d(T)[sp].d(A)[sp].[moe](A)[sp].[moe](A)p.[moe](G)[sp].[moe](A)}$$$$ (last 3' nucleoside missing)	0
RNA1{[moe](T)[sp].[moe](G)p.[moe]([m5C])[sp].[moe](T)[sp].[moe](T)[sp].d(T)[sp].d([m5C])[sp].d(A)[sp].d(T)[sp].d(A)[sp].d(G)[sp].d([m5C])[sp].d(T)[sp].d(T)[sp].d([m5C])[sp].[moe]([m5C])[sp].[moe](A)p.[moe]([m5C])[sp].[moe]([m5C])}$$$$ (last 3' nucleoside missing)	4
RNA1{[moe](T)[sp].[moe](G)p.[moe]([m5C])p.[moe](T)p.[moe](G)[sp].d([m5C])[sp].d(T)[sp].d([m5C])[sp].d(A)[sp].d(T)[sp].d(A)[sp].d(T)[sp].d([m5C])[sp].d(T)[sp].d(A)[sp].[moe](A)p.[moe](A)p.[moe](G)[sp].[moe](A)}$$$$ (last 3' nucleoside missing)	0
RNA1{[moe](T)[sp].[moe](G)p.[moe]([m5C])p.[moe](T)p.[moe](T)[sp].d(T)[sp].d([m5C])[sp].d(A)[sp].d(T)[sp].d(A)[sp].d(G)[sp].d([m5C])[sp].d(T)[sp].d(T)[sp].d([m5C])[sp].[moe]([m5C])p.[moe](A)p.[moe]([m5C])[sp].[moe]([m5C])}$$$$ (last 3' nucleoside missing)	0
RNA1{[moe](T)[sp].[moe](G)p.[moe]([m5C])p.[moe](T)p.[moe]([m5C])[sp].d(T)[sp].d([m5C])[sp].d(T)[sp].d(T)[sp].d(T)[sp].d([m5C])[sp].d(T)[sp].d([m5C])[sp].d(A)[sp].d([m5C])[sp].[moe](A)p.[moe](T)p.[moe](A)[sp].[moe]([m5C])}$$$$ (last 3' nucleoside missing)	0
RNA1{[moe](T)[sp].[moe](T)p.[moe](A)[sp].[moe](A)[sp].[moe](A)[sp].d(A)[sp].d(T)[sp].d([m5C])[sp].d(T)[sp].d(T)[sp].d([m5C])[sp].d(A)[sp].d(G)[sp].d(T)[sp].d(T)[sp].[moe]([m5C])[sp].[moe]([m5C])p.[moe](T)[sp].[moe](T)}$$$$ (last 3' nucleoside missing)	0
RNA1{[moe](T)[sp].[moe](T)p.[moe](A)[sp].[moe](A)[sp].[moe]([m5C])[sp].d(A)[sp].d(A)[sp].d(T)[sp].d(A)[sp].d(T)[sp].d([m5C])[sp].d(A)[sp].d(T)[sp].d(A)[sp].d(T)[sp].[moe](A)[sp].[moe](A)p.[moe](T)[sp].[moe]([m5C])}$$$$ (last 3' nucleoside missing)	0
RNA1{[moe](T)[sp].[moe](T)p.[moe](G)[sp].[moe](G)[sp].[moe]([m5C])[sp].d(T)[sp].d(G)[sp].d(G)[sp].d(A)[sp].d(A)[sp].d(A)[sp].d(T)[sp].d(G)[sp].d(A)[sp].d(G)[sp].[moe](T)[sp].[moe](G)p.[moe]([m5C])[sp].[moe](A)}$$$$ (last 3' nucleoside missing)	6
RNA1{[moe](T)[sp].[moe](T)p.[moe](G)[sp].[moe]([m5C])[sp].[moe](T)[sp].d(G)[sp].d([m5C])[sp].d(T)[sp].d([m5C])[sp].d(A)[sp].d(T)[sp].d(A)[sp].d(T)[sp].d([m5C])[sp].d(T)[sp].[moe](A)[sp].[moe](A)p.[moe](A)[sp].[moe](G)}$$$$ (last 3' nucleoside missing)	3
RNA1{[moe](T)[sp].[moe](T)p.[moe](T)[sp].[moe]([m5C])[sp].[moe](A)[sp].d(T)[sp].d(T)[sp].d([m5C])[sp].d(G)[sp].d(G)[sp].d(T)[sp].d(T)[sp].d(A)[sp].d(T)[sp].d(A)[sp].[moe](A)[sp].[moe](G)p.[moe](G)[sp].[moe]([m5C])}$$$$ (last 3' nucleoside missing)	7
RNA1{[moe](T)[sp].[moe](T)p.[moe]([m5C])[sp].[moe](A)[sp].[moe](T)[sp].d(A)[sp].d(G)[sp].d([m5C])[sp].d(T)[sp].d(T)[sp].d([m5C])[sp].d([m5C])[sp].d(A)[sp].d([m5C])[sp].d([m5C])[sp].[moe](A)[sp].[moe]([m5C])p.[moe](A)[sp].[moe](A)}$$$$ (last 3' nucleoside missing)	5
RNA1{[moe](T)[sp].[moe](T)p.[moe]([m5C])[sp].[moe](A)[sp].[moe](T)[sp].d(T)[sp].d([m5C])[sp].d(G)[sp].d(G)[sp].d(T)[sp].d(T)[sp].d(A)[sp].d(T)[sp].d(A)[sp].d(A)[sp].[moe](G)[sp].[moe](G)p.[moe]([m5C])[sp].[moe](A)}$$$$ (last 3' nucleoside missing)	6
RNA1{[moe](T)[sp].[moe](T)p.[moe]([m5C])p.[moe](A)p.[moe](G)[sp].d(T)[sp].d(T)[sp].d([m5C])[sp].d([m5C])[sp].d(T)[sp].d(T)[sp].d([m5C])[sp].d(A)[sp].d(G)[sp].d(T)[sp].[moe]([m5C])p.[moe](T)p.[moe]([m5C])[sp].[moe](A)}$$$$ (last 3' nucleoside missing)	4
RNA1{[moe](T)[sp].[moe](T)p.[moe]([m5C])p.[moe](A)p.[moe](T)[sp].d(T)[sp].d([m5C])[sp].d(G)[sp].d(G)[sp].d(T)[sp].d(T)[sp].d(A)[sp].d(T)[sp].d(A)[sp].d(A)[sp].[moe](G)p.[moe](G)p.[moe]([m5C])[sp].[moe](A)}$$$$ (last 3' nucleoside missing)	4
RNA1{[moe](T)[sp].[moe]([m5C])p.[moe](A)[sp].[moe](T)[sp].[moe](T)[sp].d([m5C])[sp].d(G)[sp].d(G)[sp].d(T)[sp].d(T)[sp].d(A)[sp].d(T)[sp].d(A)[sp].d(A)[sp].d(G)[sp].[moe](G)[sp].[moe]([m5C])p.[moe](A)[sp].[moe]([m5C])}$$$$ (last 3' nucleoside missing)	7
RNA1{[moe](T)[sp].[moe]([m5C])p.[moe](A)p.[moe](G)p.[moe](T)[sp].d(T)[sp].d([m5C])[sp].d([m5C])[sp].d(T)[sp].d(T)[sp].d([m5C])[sp].d(A)[sp].d(G)[sp].d(T)[sp].d([m5C])[sp].[moe](T)p.[moe]([m5C])p.[moe](A)[sp].[moe](A)}$$$$ (last 3' nucleoside missing)	4
RNA1{[moe](T)[sp].[moe]([m5C])p.[moe](A)p.[moe]([m5C])p.[moe]([m5C])[sp].d(A)[sp].d([m5C])[sp].d(A)[sp].d(A)[sp].d(A)[sp].d([m5C])[sp].d(T)[sp].d([m5C])[sp].d(A)[sp].d(T)[sp].[moe](G)p.[moe](G)p.[moe](A)[sp].[moe]([m5C])}$$$$ (last 3' nucleoside missing)	3
RNA1{[moe](T)[sp].[moe]([m5C])p.[moe](T)[sp].[moe](T)[sp].[moe]([m5C])[sp].d(A)[sp].d(G)[sp].d(T)[sp].d(T)[sp].d([m5C])[sp].d([m5C])[sp].d(T)[sp].d(T)[sp].d([m5C])[sp].d(A)[sp].[moe](G)[sp].[moe](T)p.[moe]([m5C])[sp].[moe](T)}$$$$ (last 3' nucleoside missing)	3
RNA1{[moe](T)[sp].[moe]([m5C])p.[moe](T)p.[moe](T)p.[moe]([m5C])[sp].d(A)[sp].d(G)[sp].d(T)[sp].d(T)[sp].d([m5C])[sp].d([m5C])[sp].d(T)[sp].d(T)[sp].d([m5C])[sp].d(A)[sp].[moe](G)p.[moe](T)p.[moe]([m5C])[sp].[moe](T)}$$$$ (last 3' nucleoside missing)	3
RNA1{[moe]([m5C])[sp].[moe](A)p.[moe](A)[sp].[moe](G)[sp].[moe](T)[sp].d([m5C])[sp].d([m5C])[sp].d(A)[sp].d(A)[sp].d(A)[sp].d(T)[sp].d(G)[sp].d(T)[sp].d(G)[sp].d(T)[sp].[moe]([m5C])[sp].[moe](A)p.[moe](A)[sp].[moe](A)}$$$$ (last 3' nucleoside missing)	7
RNA1{[moe]([m5C])[sp].[moe](A)p.[moe](T)[sp].[moe](T)[sp].[moe]([m5C])[sp].d(G)[sp].d(G)[sp].d(T)[sp].d(T)[sp].d(A)[sp].d(T)[sp].d(A)[sp].d(A)[sp].d(G)[sp].d(G)[sp].[moe]([m5C])[sp].[moe](A)p.[moe]([m5C])[sp].[moe](A)}$$$$ (last 3' nucleoside missing)	7

From the OligoGym collection
